# In ChEMBL document CHEMBL4043268 (Bioorg Med Chem, 2017):
# Calls of active or inactive are those of the source. The calls are words filed in the database; no cut-off is given here.
# Key:
# [1] = biological target: T1, Liver carboxylesterase (Sus scrofa, UniProt Q29550)
# T1 sequence (Q29550 whole entry): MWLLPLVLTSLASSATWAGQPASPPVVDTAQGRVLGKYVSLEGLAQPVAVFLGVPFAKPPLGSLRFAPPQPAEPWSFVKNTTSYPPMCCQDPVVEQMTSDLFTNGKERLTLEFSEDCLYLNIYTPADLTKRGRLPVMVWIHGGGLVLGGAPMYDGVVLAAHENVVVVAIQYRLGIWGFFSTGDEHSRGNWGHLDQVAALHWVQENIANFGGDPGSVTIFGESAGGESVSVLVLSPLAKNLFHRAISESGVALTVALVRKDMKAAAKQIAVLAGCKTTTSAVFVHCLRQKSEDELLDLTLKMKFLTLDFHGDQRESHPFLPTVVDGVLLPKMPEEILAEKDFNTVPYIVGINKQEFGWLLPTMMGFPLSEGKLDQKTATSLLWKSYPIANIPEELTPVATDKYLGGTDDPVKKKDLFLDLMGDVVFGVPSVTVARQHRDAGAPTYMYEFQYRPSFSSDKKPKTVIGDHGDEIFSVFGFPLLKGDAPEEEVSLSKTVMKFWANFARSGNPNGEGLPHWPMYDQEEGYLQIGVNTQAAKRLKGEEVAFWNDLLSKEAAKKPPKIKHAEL
# Description: Inhibition of pig liver carboxylesterase using 4-nitrophenol acetate as substrate by spectrophotometric analysis
# [2] = biological target: Cholinesterase (Equus caballus) (UniProt P81908); test: Inhibition of equine serum BChE at 20 uM using butyrylthiocholine iodide as substrate preincubated for 10 mins followed by substrate addition by Ellman's method
# [3] = biological target: T2, Acetylcholinesterase (Homo sapiens, UniProt P22303); test: Inhibition of human erythrocyte AChE at 20 uM using acetylthiocholine iodide as substrate preincubated for 10 mins followed by substrate addition Ellman's method
# [4] = biological target: T1, Liver carboxylesterase; test: in vitro; conditions: pig, probe 4-nitrophenol acetate
# Description: Inhibition of pig liver carboxylesterase at 20 uM using 4-nitrophenol acetate as substrate by spectrophotometric analysis
# [5] = biological target: T3, Cholinesterase (Equus caballus, UniProt P81908)
# Description: Inhibition of equine serum BChE using butyrylthiocholine iodide as substrate preincubated for 10 mins followed by substrate addition by Ellman's method
# [6] = biological target: T3, Cholinesterase; remark: listed apart in the source
# Description: Competitive inhibition of equine serum BChE using butyrylthiocholine iodide as substrate preincubated for 10 mins followed by substrate addition by Lineweaver-Burk double reciprocal kinetic plot analysis
# [7] = biological target: T2, Acetylcholinesterase
# Description: Inhibition of human erythrocyte AChE using acetylthiocholine iodide as substrate preincubated for 10 mins followed by substrate addition by Ellman's method
# [8] = biological target: T2, Acetylcholinesterase; remark: listed apart in the source
# Description: Competitive inhibition of human serum AChE using acetylthiocholine iodide as substrate preincubated for 10 mins followed by Lineweaver-Burk double reciprocal kinetic plot analysis
# [9] = biological target: Cholinesterase (Equus caballus) (UniProt P81908); test: Non-competitive inhibition of equine serum BChE using butyrylthiocholine iodide as substrate preincubated for 10 mins followed by substrate addition by Lineweaver-Burk double reciprocal kinetic plot analysis
# [10] = biological target: T2, Acetylcholinesterase; test: Non-competitive inhibition of human […] AChE using acetylthiocholine iodide as substrate preincubated for 10 mins followed by substrate addition by Lineweaver-Burk double reciprocal kinetic plot analysis
# T2 sequence (P22303 whole entry): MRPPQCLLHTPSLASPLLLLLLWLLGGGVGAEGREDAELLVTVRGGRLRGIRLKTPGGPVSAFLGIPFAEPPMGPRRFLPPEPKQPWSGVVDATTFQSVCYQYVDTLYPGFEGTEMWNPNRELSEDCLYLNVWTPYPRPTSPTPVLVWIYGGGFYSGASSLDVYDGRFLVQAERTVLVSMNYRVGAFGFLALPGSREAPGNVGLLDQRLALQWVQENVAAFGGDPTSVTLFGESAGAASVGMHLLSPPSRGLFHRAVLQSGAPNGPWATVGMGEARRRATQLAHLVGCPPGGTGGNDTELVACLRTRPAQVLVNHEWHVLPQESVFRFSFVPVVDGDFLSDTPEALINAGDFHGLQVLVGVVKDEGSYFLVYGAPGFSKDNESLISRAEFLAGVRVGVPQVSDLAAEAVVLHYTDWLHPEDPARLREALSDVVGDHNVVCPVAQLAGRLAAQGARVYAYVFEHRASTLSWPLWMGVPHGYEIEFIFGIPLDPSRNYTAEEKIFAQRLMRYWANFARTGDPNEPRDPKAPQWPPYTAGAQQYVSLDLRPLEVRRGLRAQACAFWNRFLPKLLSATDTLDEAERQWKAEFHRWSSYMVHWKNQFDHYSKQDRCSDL
# Sequence of Cholinesterase (Equus caballus) (P81908 whole entry): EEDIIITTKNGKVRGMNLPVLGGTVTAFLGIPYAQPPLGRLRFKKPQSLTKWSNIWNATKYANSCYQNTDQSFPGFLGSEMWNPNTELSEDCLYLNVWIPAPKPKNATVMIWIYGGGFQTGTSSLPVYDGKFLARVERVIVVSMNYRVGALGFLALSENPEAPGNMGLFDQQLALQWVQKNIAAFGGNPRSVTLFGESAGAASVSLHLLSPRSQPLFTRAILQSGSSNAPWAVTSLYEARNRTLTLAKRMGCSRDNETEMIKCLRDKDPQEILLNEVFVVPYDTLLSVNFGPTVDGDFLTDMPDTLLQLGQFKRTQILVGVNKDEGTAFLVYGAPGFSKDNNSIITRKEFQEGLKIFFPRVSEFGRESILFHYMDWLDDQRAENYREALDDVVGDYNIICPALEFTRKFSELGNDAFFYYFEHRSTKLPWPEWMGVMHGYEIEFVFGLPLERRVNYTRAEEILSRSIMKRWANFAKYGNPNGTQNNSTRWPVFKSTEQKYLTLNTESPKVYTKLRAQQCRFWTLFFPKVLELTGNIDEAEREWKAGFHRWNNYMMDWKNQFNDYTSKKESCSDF
# T3 sequence (P81908 whole entry): as above
SMILES,IC50 [1] [µM],inhibition [2],inhibition [3],inhibition at 20 µM [4] [%],IC50 [5] [µM],Ki [6] [µM],IC50 [7] [µM],Ki [8] [µM],alphaKi [9] [µM],alphaKi [10] [µM]
CC(=O)Nc1ccc(C2c3ccccc3N(C)c3ccccc32)cc1,> 20,10.8%,inactive,7.2,> 20,,,,,
CN1c2ccccc2C(N2CCOCC2)c2ccccc21,> 20,,,16.4,0.46,0.41,12.3,4.01,1.17,19.6
COc1ccc(C2c3ccccc3N(C)c3ccccc32)cc1,,11.6%,9.3%,,> 20,,> 20,,,
C[n+]1c2ccccc2c(-c2ccc(N)cc2)c2ccccc21,> 20,,,18.6,39.1,19,7.62,2.66,55.4,8.95
CN1c2ccccc2C(c2ccc(F)cc2)c2ccccc21,,11.1%,inactive,,> 20,,,,,
C[n+]1c2ccccc2c(-c2ccc(F)cc2)c2ccccc21,> 20,8.2%,,5.9,> 20,,32.3,,,
C[n+]1c2ccccc2c(-c2ccc(NC(=O)C(F)(F)F)cc2)c2ccccc21,> 20,7.7%,,7.2,> 20,,36.5,,,
CN1c2ccccc2C(c2cc(C(C)(C)C)c(O)c(C(C)(C)C)c2)c2ccccc21,> 20,10.4%,inactive,23.6,> 20,,,,,
C[n+]1c2ccccc2c(-c2ccccc2)c2ccccc21,> 20,,,22.6,51.9,,61.3,,,
C[n+]1c2ccccc2c(N)c2ccccc21,,,,,4.83,,39.5,,,
CN1c2ccccc2C(c2cccs2)c2ccccc21,> 20,12.3%,inactive,11.1,> 20,,,,,
C[n+]1c2ccccc2c(-c2cc(C(C)(C)C)cc(C(C)(C)C)c2O)c2ccccc21,> 20,,16.7%,31.2,2.74,1.46,> 20,,4.75,
CN1c2ccccc2C(n2cncn2)c2ccccc21,> 20,,,5.4,0.81,0.16,18.8,3.34,0.72,
Cc1cc(-c2c3ccccc3[n+](C)c3ccccc23)cc(C)c1C,,14.2%,,,> 20,,60.1,,,
CN1c2ccccc2C(c2ccccc2)c2ccccc21,,,inactive,,62.1,,,,,
O=[N+]([O-])c1ccc(OP(=O)(O)Oc2ccc([N+](=O)[O-])cc2)cc1,,inactive,inactive,,,,,,,

SMILES,IC50 [1] [µM],inhibition [2],inhibition [3],inhibition at 20 µM [4] [%],IC50 [5] [µM],Ki [6] [µM],IC50 [7] [µM],Ki [8] [µM],alphaKi [9] [µM],alphaKi [10] [µM]
CN1c2ccccc2C(N2CCSCC2)c2ccccc21,> 20,,,5,0.84,0.35,11.8,3.75,1.31,
CN1c2ccccc2C(c2ccc(NC(=O)C(F)(F)F)cc2)c2ccccc21,,7.1%,inactive,,> 20,,,,,
C[n+]1c2ccccc2c(-c2cccs2)c2ccccc21,> 20,,,6.1,58.3,,40.9,,,
Cc1cc(-c2c3ccccc3[n+](C)c3ccccc23)cc(C)c1O,,,,,61.8,,49.8,,,
CCCCNc1c2ccccc2[n+](C)c2ccccc12,,,16.8%,,15.7,,> 20,,,
COc1ccc(-c2c3ccccc3[n+](C)c3ccccc23)cc1,> 20,,,7.8,58.5,,13.7,,,
CN1c2ccccc2C(c2ccc(N)cc2)c2ccccc21,,,inactive,,66.5,,,,,
C[n+]1c2ccccc2c(-c2c(O)ccc3ccccc23)c2ccccc21,> 20,,7.3%,8.9,50.8,,> 20,,,
CN1c2ccccc2C(n2c3ccccc3c3ccccc32)c2ccccc21,,,5.6%,,13,,> 20,,,
CN1c2ccccc2C(c2cc(C(C)(C)C)cc(C(C)(C)C)c2O)c2ccccc21,,13.4%,inactive,,> 20,,,,,
CC(=O)Nc1ccc(-c2c3ccccc3[n+](C)c3ccccc23)cc1,,,,,35.1,,54.3,,,
CN1c2ccccc2C(n2nnc3ccccc32)c2ccccc21,> 20,,,15.3,1.08,0.49,12.4,6.43,2.13,17.9
CCN(CC)c1ccc(-c2c3ccccc3[n+](C)c3ccccc23)cc1,,,,,3.35,0.94,25.2,13.2,4.22,28
Cc1ccc(C2c3ccccc3N(C)c3ccccc32)cc1,,10.6%,5.1%,,> 20,,> 20,,,
CN1c2ccccc2C(n2cnc([N+](=O)[O-])n2)c2ccccc21,> 20,,,10.6,1.17,,16.7,,,
Cc1ccc(-c2c3ccccc3[n+](C)c3ccccc23)cc1,> 20,,,16.3,40.7,,41.5,,,
